In US4959377A, “Phenoxypyridinamine compounds which are use as a dermatological composition” (Hoechst-Roussel Pharmaceuticals Inc., priority 1989, dated 1990):
Structures can show the parent of a compound that is named as a salt.

Legend:
porcine pancreatic PLA2 = target: T1, porcine pancreatic PLA2 (Sus scrofa, UniProt P00592); experiment: In Vitro Phospholipase A2 Assay (PLA2); type: biochemical; conditions: 0.01 M test compound, 37° C., pH 8.0; read-out: PLA2 (difference vs. control)
T1 construct: from tissue; host or cells: porcine pancreas
T1 sequence (P00592 23-146): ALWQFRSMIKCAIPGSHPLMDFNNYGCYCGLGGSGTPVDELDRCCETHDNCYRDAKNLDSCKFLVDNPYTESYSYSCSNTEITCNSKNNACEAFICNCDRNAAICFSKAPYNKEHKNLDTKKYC
Experimental: In Vitro Phospholipase A2 Assay (PLA2)
The ability of a compound to modulate PLA2 activity (cleavage of ^14 C-dipalmitoyl phosphotidylcholine at the 2-position to ^14 C-palmitic acid) was quantitated in this assay. The reaction mixture contained Tris buffer (25 mM), pH 8.0, calcium chloride (2.0 mM), bovine serum albumin (0.5 mg), dipalmitoyl phosphotidylcholine (8×10^-5M), (^14 C-palmitoyl)dipalmitoyl phosphotidylcholine (6×10^3cpm), porcine pancreatic PLA2 (3.2 units) and the test compound. The reaction was run at 37° C. in a shaking incubator. The reaction was quenched and an internal standard was added in order to determine sample recovery. The samples were loaded onto C18 columns, eluted with ethanol, and the radioactivity was then measured. […] See Feyen, J. H. M., et al., Journal of Chromatography 259 (1983), pp. 338-340.

[1] = system: ear edema induced by topical application of TPA (phorbol 12-myristate acetate); experiment: TPA-Induced Ear Edema (TPAEE); type: in vivo, Female Swiss Webster mice; conditions: for TPAEE: 10 μg/ear topical, TPA 10 μg/ear, five hours
Experimental: TPA-Induced Ear Edema (TPAEE)
The purpose of this assay was to determine the ability of a topically-applied compound to prevent ear edema induced by topical application of TPA (phorbol 12-myristate acetate). Female Swiss Webster mice topically received TPA (10 μg/ear) on the right ear and vehicle on the left ear. The test compound (10 μg/ear) was applied to both ears. After five hours, the animals were sacrificed and an ear punch (4 mm) was taken from each ear. The difference in right and left ear punch weights for each animal was determined to assess activity. […] See Young, J. M. et al., J. Invest. Dermatol., 80 (1983), pp. 48-52.

[2] = system: mouse ear edema induced by topical application of arachidonic acid; experiment: Arachidonic Acid-Induced Ear Edema (AAEE); type: in vivo, Female Swiss Webster mice
Experimental: Arachidonic Acid-Induced Ear Edema (AAEE)
The purpose of this assay was to determine the ability of a topically-applied compound to prevent mouse ear edema induced by topical application of arachidonic acid. Female Swiss Webster mice topically received vehicle or test compound (1.0 mg/ear) on both ears (10 μl on outer and inner ears). After 30 minutes, the right ear of all groups received arachidonic acid (4 mg/ear) and the left ear received vehicle alone. After an additional 1 hour, the mice were sacrificed and an ear punch (4 mm) was taken from each ear. The difference in right and left ear punch weights for each animal was determined to assess activity. […] See Young, J. M. et al., J. Invest. Dermatol., 80, (1983), pp 48-52.

[3] = system: naja naja (snake venom) phospholipase A2 -induced paw edema; experiment: Phospholipase A2-induced Paw Edema (PIPE); type: in vivo, male Wistar rats
Experimental: Phospholipase A2 -induced Paw Edema (PIPE)
The ability of compounds to prevent naja naja (snake venom) phospholipase A2 -induced paw edema in male Wistar rats (100-125 g) was measured. PLA2 (3 units/paw) alone or with 0.1M of the test compound was injected in the subplantar region of the rat left hindpaw. Immediately subsequent to the injection and at two hours post administration the paw was immersed in a mercury bath, and paw displacement was measured on a recorder via a transducer. […] See Giessler, A. J. et al., Agents and Actions, Vol. 10, Trends in Inflammation Research (1981), p. 195.

| Structure (SMILES) | inhibition at 10000 µM (porcine pancreatic PLA2) [%] | TPAEE [1] [%] | other results |
| --- | --- | --- | --- |
| Nc1ccncc1Oc1ccccc1CO [2-(4-Amino-3-pyridinyloxy)benzenemethanol oxalate] | 82 | – | – |
| COC(=O)c1ccccc1Oc1cnccc1N [2-(4-Amino-3-pyridinyloxy)benzoic acid methyl ester hydrochloride] | 38 | – | – |
| COc1ccc(Oc2c[n+]([O-])ccc2[N+](=O)[O-])cc1 [3-(4-Methoxyphenoxy)-4-nitropyridine-1-oxide] | – | -43 | – |
| Cl.Nc1ccncc1Oc1ccccc1 [3-phenoxy-4-pyridinamine hydrochloride, 3-Phenoxy-4-pyridinamine hydrochloride] | 95 | -60 | AAEE ([2]; 1 mg/ear topical, arachidonic acid 4 mg/ear, 1 hour): -31%; PIPE (difference in edema vs. control) ([3]; 0.1 M test compound injected with PLA2 (3 units/paw), subplantar, rat hindpaw, two hours post administration): -79% |
| CCOC(=O)Cc1ccc(Oc2cnccc2N)cc1.O=C(O)C(=O)O [4-(4-Amino-3-pyridinyloxy)benzeneacetic acid ethyl ester oxalate] | – | -39 | – |
| Nc1cnccc1Oc1ccccc1 [4-phenoxy-3-pyridinamine, 4-Phenoxy-3-pyridinamine] | – | -34 | – |
| CC(=O)Nc1ccncc1Oc1ccccc1 [N-(3-Phenoxy-4-pyridinyl)acetamide hydrochloride] | 73 | – | – |
| C[C@]12CCC(=O)C=C1CC[C@@H]1[C@@H]2[C@@H](O)C[C@@]2(C)[C@H]1CC[C@]2(O)C(=O)CO [hydrocortisone, reference compound] | – | – | ED50 (TPAEE standard) ([1]; standard, topical): 47 μg/ear; ED50 (PIPE standard) ([3]; standard, rat paw edema): 0.46 M |
| COc1ccc2c(c1)c(CC(=O)O)c(C)n2C(=O)c1ccc(Cl)cc1 [indomethacin, reference compound] | – | – | ED50 (AAEE standard) ([2]; standard, topical): 1.5 mg/ear |
